Assays:
[1] = tested on: Orobanche cumana Wallr. seeds (race 'F'); assay: Orobanche cumana seed germination test on glass fiber filter paper; type: in vivo; settings: preconditioned seeds, seed lot IN153, 10 days at 20° C. in the dark, mean, N = 5 × 100 seeds
Protocol: The effect of compounds of Formula (I) on germination of Orobanche cumana Wallr. seeds was evaluated on glass fiber filter paper (GFFP) in petri dishes. Seeds were preconditioned at moisture and suitable temperature to become responsive to the specific chemical germination stimulants.
Test compounds were dissolved in DMSO (10 000 mg l^−1) and stored at room temperature in a desiccators with desiccants. The stock solutions were dissolved with deionised water to the appropriate final test concentration.
Seeds of O. cumana race ‘F’ were collected from sunflower fields in Manzanilla (Seville, Spain) in 2008 (seed lot IN153) and stored at room temperature. To separate seeds from heavy organic debris, a modified sucrose floatation technique as described by Hartman & Tanimonure (Plant Disease (1991), 75, p. 494) was applied. Seeds were filled into a separation funnel and stirred in water. When seeds floated to the surface, the water fraction containing heavy debris was discarded. Seeds were re-suspended in 2.5M sucrose solution (specific gravity of 1.20) and heavy debris was allowed to settle down for 60 min. After removing debris, seeds were disinfected in 1% sodium hypochlorite solution and 0.025% (v/v) Tween 20 for 2 min. The seeds were decanted onto two layers of cheesecloth, rinsed with sterile deionised water and re-suspended in sterile deionised water. Two ml of the seed suspension containing approximately 150-400 seeds were spread evenly on two layers of sterile glass fiber filter paper disc ([…]) in Petri dishes (Ø9 cm). After wetting the discs with 3 ml sterile deionised water, petri dishes were sealed with parafilm. Seeds were incubated for 10 days at 20° C. in the dark for seed conditioning. The upper disc with conditioned seeds was briefly dried, transferred to a petri dish lined with a dry GFFP disc, and wetted with 6 ml of the appropriate test solution. The compounds of Formula (I) were tested at concentrations of 0.001, 0.01, and 0.1 mg l^−1. The strigolactone analogue GR24 (commercially available as a mixture of isomers) was included as positive control and 0.001% DMSO as negative control. All treatments were tested in five replicates. Seeds were re-incubated at 20° C. in the dark and examined for germination 10 days later. The radicles of germinated seeds were stained for 5 min with blue ink (MIGROS, Switzerland) in 5% acetic acid according to Long et al. (Seed Science Research (2008), 18, p. 125). After staining, seeds were scanned using a flatbed scanner with an optical resolution of 1200 dpi (PULSTEK, OpticPro ST28) or photographed using a camera stand mounted with a digital SLR camera (Canon EOS 5D). Germination of 100 seeds per replicate was evaluated on digital images. Seeds were considered germinated when the radicle protruded from the seed coat.

[2] = tested on: Brassica oleracea cv Botrytis (temperate cauliflower Spacestar) seeds; assay: Cauliflower paper germination test under suboptimal conditions; type: in vivo; settings: 25 μM, 10° C. and in the light
Protocol: The effect of compounds of Formula (I) on the germination of Brassica oleracea cv Botrytis or common cauliflower was tested on two types of cauliflowers: temperate types and tropical types. These two types were chosen because they display different sensitivities to the light conditions and temperature during germination. Germination of a sensitive temperate type is inhibited by light at 10° C. while for the tropical types germination at 20° is stimulated by the presence of light. […] The temperate seed batches tested are part of commercially produced seed batches of various varieties which are known to be sensitive to light at 10° C. These seeds were harvested and cleaned according standard commercial procedures. Ready seed batches were used (Ready indicates the processing level of these seeds: they have been cleaned and sized but received no other treatments). The tropical seed batches tested are part of seed batches produced as basic seed (for maintenance of the parental line) and were processed accordingly. Germination was assessed using the standard paper germination test for Brassica: Fifty seeds were placed on blue germination paper, which was moistened with the appropriate solutions, in closed oblong germination boxes. Each condition was tested in duplo. Germination boxes were placed in controlled germination cabinets with the appropriate temperature and light conditions. Germination of seeds was counted at regular intervals. Seeds were considered to be germinated when the radical had protruded the testa and endosperm (radical size approximately 1 mm). Test compounds were dissolved in DMSO at a concentration of 50 mM and stored at −20° C. The strigolactone analogue GR24 (commercially available as a racemic mixture of 2 diastereoisomers, referred to as “synthetic strigolactone GR-24” and first prepared by Johnson A. W. & all, Journal of the Chemical Society, Perkin Transactions 1, 1981, page 1734-1743) was included as positive control. Germination solutions were prepared by diluting the stock solutions with demineralized water till 25 μM. As control solutions demineralized water and a 0.05% v/v DMSO solution were used.

[3] = Spacestar seed batch 11B313 (cold-sensitive)
[4] = Spacestar seed batch 11B314 (not cold sensitive)

Compound	Germination (%) ([1]; 0.001 mg l^−1)	Germination (%) ([1]; 0.01 mg l^−1)	Germination (%) ([1]; 0.1 mg l^−1)	Gmax (total germination as percentage of sown seeds) [2, 3] [%]	stimulation (extra germination compared to the DMSO treatment, as percentage of the germination in the DMSO treatment) [2, 3] [%]	Gmax (total germination as percentage of sown seeds) [2, 4] [%]	stimulation (extra germination compared to the DMSO treatment, as percentage of the germination in the DMSO treatment) [2, 4] [%]
CC1=C[C@H](O/C=C2/C(=O)O[C@@H]3c4ccccc4C[C@H]23)OC1=O [GR24]	67	65	78.4	71.5	19.2	93.5	3.3
CC1=C[C@H](O/C=C2/C(=O)N[C@@H]3c4ccsc4C[C@H]23)OC1=O (racemic) [Compound A3, (3aR*,8bS*)-(3E)-3-[(2R)(4-methyl-5-oxo-2H-furan-2-yl)oxymethylene]-3,3a,4,8b-tetrahydro-1H-thioindeno[1,2-b]pyrrol-2-one]	87.8	85.6	84.6	75.0	38.9	94.0	9.3

— patent US20180134726A1, “PLANT GROWTH REGULATING COMPOUNDS” (Syngenta Participations AG, priority 2012, published 2018)
